# Measured values reported in patent US20220081481A1, “USE OF AGENTS CAPABLE OF INDUCING LC3-ASSOCIATED PHAGOCYTOSIS FOR TREATING SUSTAINED INFLAMMATION IN PATIENTS SUFFERING FROM CHRONIC LIVER DISEASE” (INSERM (INSTITUT NATIONAL DE LA SANTÉ ET DE LA RECHERCHE …, priority 2019, published 2022).
# Ends that are not written are not given here.
# Key:
# [1] = system: blood monocytes from healthy donors and cirrhotic patients; assay: RT-PCR analysis of inflammatory gene expression in blood monocytes; assay type: cell-based, human; settings: cirrhotic monocytes vs control-treated cells from healthy donors; 10 mM 3-MA, 10 μM DPI, 30 μM N8; FIG. 1C
# Description: FIG. 1: Inhibition of LAP components enhances the inflammatory signature in blood monocytes from patients with cirrhosis. (A). Inverse correlation between circulating C-Reactive Protein (CRP) levels and the number of LC3+ pHrodo+ phagosomes containing E. Coli bioparticles in blood monocytes from patients with cirrhosis (n=14). *p=0.005, r=-0.7 for LC3+ pHrodo+ phagosomes number vs CRP. (B). PBMC were incubated for 4 hrs at 37° C. with either vehicle, 10 mM 3-MA, 10 μM DPI, 30 μM N8 or control mutant […] peptides Percentage of IL8+ production in CD14+ cells from patients (n=8) and healthy donors (n=6) PBMC. (C). RT-PCR analysis of inflammatory gene expression in blood monocytes from healthy donors (n=6-8) and cirrhotic patients (n=6-11). Results are expressed as fold over respective control. *p<0.05, **p<0.001 for healthy vs cirrhotic. Statistical analysis was performed using Spearman correlation test (A), Mann-Whitney (b, for comparison between healthy and cirrhosis) and Wilcoxon matched-pairs signed rank test (B, for treatment). Human blood monocytes. Human monocytes were isolated from freshly isolated PBMC, using EasySep human monocyte enrichment kit (STEMCELL Technologies, 19058), and CD14+CD16+ monocytes were isolated by immunomagnetic negative selection according to the manufacturer's instructions. Cell treatment. […]
# [2] = system: blood monocytes from patients with cirrhosis; assay: LC3+ pHrodo+ phagosome (LAPosome) number in blood monocytes from patients with cirrhosis; assay type: cell-based, human; settings: 10 mM 3-MA, 30 μM N8 peptide, data not shown
# Description: Human blood monocytes. Human monocytes were isolated from freshly isolated PBMC, using EasySep human monocyte enrichment kit (STEMCELL Technologies, 19058), and CD14+CD16+ monocytes were isolated by immunomagnetic negative selection according to the manufacturer's instructions. Cell treatment. Human monocytes, THP1-XBlueTM-CD14 (Invivogen, Catalog #[…] THP1-FcγRIIA+-CD14+(kindly provided by Novimmune) monocytes were used. When indicated cells were exposed to either 30 μM chloroquine diphosphate (Sigma, C6628), 10 mM 3-Methyladenine (3-MA, Sigma, M9281-100 mg), 10 mM Diphenyleneiodonium chloride (DPI, Sigma, D2926-10 mg), or 10 mg/ml IVIg (Privigen, 100 mg/ml) for 4 hrs at 37° C., as indicated. […] For quantification, images were acquired by confocal microscopy (Confocal Zeiss LSM 780) equipped with a 63× oil immersion objective. For each condition, 10 to 15 fields were randomly selected, and the number of LC3+ signal localized around pHrodo+ phagosomes (LC3+ pHrodo+) was quantified in at least 40 to 60 cells. Unless otherwise indicated, results are expressed as number of LC3+ phagosomes/individual normalized to 100 cells. […]
Compound,gene expression of cytokines and chemokines [1],LC3+ phagosome number [2]
"N8 peptide: Tat-conjugated peptide of eight N-terminal amino acids (3-10) of p22phox that blocks the Rubicon-p22phox interaction (QIEWAMWA; also: Tat cell-penetrating peptide conjugate, attachment not given here; UniProt P13498 3-10, looked up, fragment)",significantly higher,significant reduction
"Cn1cnc(N)c2ncnc1-2 [3-MA, 3-Methyladenine]",significantly higher,significant reduction
